Laboratory results as given in patent publication US20250213512A1, “TRANSDERMAL ANALGESIC FORMULATION” (MEAT & LIVESTOCK AUSTRALIA LTD, priority 2017, published 2025).
Values joined by “and” are separate entries in the source; they are usually repeats but may differ in a detail not shown here. Equal entries are not always repeated.

Columns and labels:
[1] = Screening of NSAID and vehicle combinations: penetration through cattle skin in vitro (Table 13)
Method: Hair was removed using an electric clipper and the subcutaneous fat and musculature carefully trimmed away before the skin was cut into circular sections (approximately 2 cm diameter) using a metal wad punch, and placed in airtight ziplock bags, stored at −20° C. within 5 hr of slaughter.
The skin samples were defrosted immediately prior to use and mounted on Franz diffusion cells. […] A glass cover slip was applied to each donor chamber to prevent evaporation of the donor solution. Samples (200 μL) were collected at regular intervals from the receptor chambers via the sampling port and immediately replenished with equal volumes of fresh receptor solution. At the completion of each study, the diffusions cells were dismantled and the skin discs were rinsed and stored.

[2] = Solubility / precipitation of NSAIDs in the vehicles tested; details: vehicles screened
[3] = 10% Tolfenamic acid, vehicle KET67 (Eucalyptus oil, 70% 1,8-cineole), sample time 4 hrs
[4] = 10% Tolfenamic acid, vehicle KET67 (Eucalyptus oil, 70% 1,8-cineole), sample time 6 hrs
[5] = 10% Tolfenamic acid, vehicle KET67 (Eucalyptus oil, 70% 1,8-cineole), sample time 8 hrs
[6] = 10% Tolfenamic acid, vehicle KET68 (propylene glycol, 100% PPG), sample time 4 hrs
[7] = Tolfenamic acid 10% in vehicle KET51: Ethanol 70% EthOH, Propylene glycol 30% PPG, terpene None, 0.1M citrate, sample time 6 hrs
[8] = Tolfenamic acid 10% in vehicle KET51: Ethanol 70% EthOH, Propylene glycol 30% PPG, terpene None, 0.1M citrate, sample time 8 hrs
[9] = Tolfenamic acid 10% in vehicle KET52: Ethanol 70% EthOH, Propylene glycol 30% PPG, Menthol 50 mg/mL, 0.1M citrate, sample time 0.5 hrs
[10] = Tolfenamic acid 10% in vehicle KET52: Ethanol 70% EthOH, Propylene glycol 30% PPG, Menthol 50 mg/mL, 0.1M citrate, sample time 2 hrs
[11] = Tolfenamic acid 10% in vehicle KET52: Ethanol 70% EthOH, Propylene glycol 30% PPG, Menthol 50 mg/mL, 0.1M citrate, sample time 4 hrs
[12] = Tolfenamic acid 10% in vehicle KET52: Ethanol 70% EthOH, Propylene glycol 30% PPG, Menthol 50 mg/mL, 0.1M citrate, sample time 6 hrs
[13] = Tolfenamic acid 10% in vehicle KET52: Ethanol 70% EthOH, Propylene glycol 30% PPG, Menthol 50 mg/mL, 0.1M citrate, sample time 8 hrs
[14] = Tolfenamic acid 50%, vehicle KET39: Ethanol 50% EthOH, no co-solvent, Menthol 50 mg/mL, sample time 0.5 hrs, replicates 1-3
[15] = Tolfenamic acid 50%, vehicle KET39: Ethanol 50% EthOH, no co-solvent, Menthol 50 mg/mL, sample time 2 hrs, replicates 1-3
[16] = Tolfenamic acid 50%, vehicle KET39: Ethanol 50% EthOH, no co-solvent, Menthol 50 mg/mL, sample time 4 hrs, replicates 1-3
[17] = Vehicle KET52: 70% EthOH, 30% PPG (propylene glycol), Menthol 50 mg/mL, 0.1M citrate, drug conc 10%, sample time 0.5 hrs
[18] = Vehicle KET52: 70% EthOH, 30% PPG (propylene glycol), Menthol 50 mg/mL, 0.1M citrate, drug conc 10%, sample time 8 hrs
[19] = Vehicle KET53: 70% EthOH, 30% OA (oleyl alcohol), no terpene, 0.1M citrate, drug conc 10%, sample time 0.5 hrs
[20] = Vehicle KET53: 70% EthOH, 30% OA (oleyl alcohol), no terpene, 0.1M citrate, drug conc 10%, sample time 8 hrs
[21] = Vehicle KET54: 100% SRArl (Superfine Arlasolve), 0.1M citrate, drug conc 10%, sample time 6 hrs

- analysis conc ([1]; 10% Tolfenamic acid, vehicle KET66 (50% Ethanol, Eucalyptus oil 21% 1,8-cineole, 0.1M citrate), sample time 0.5 hrs): 0.004
- analysis conc ([1]; 10% Tolfenamic acid, vehicle KET67 (Eucalyptus oil, 70% 1,8-cineole), sample time 0.5 hrs): 0.005 and 0.003
- Concentration [1, 3]: 0.03 µg/mL and 0.015 µg/mL
- analysis conc [1, 3]: 0.01 and 0.005
- analysis conc [1, 4]: 0.006 and 0.005 and 0.008
- analysis conc [1, 5]: 0.006 and 0.005 and 0.004
- analysis conc ([1]; 10% Tolfenamic acid, vehicle KET68 (propylene glycol, 100% PPG), sample time 0.5 hrs): 0.002
- Concentration [1, 6]: 0.021 µg/mL and 0.012 µg/mL
- analysis conc [1, 6]: 0.007 and 0.004
- analysis conc ([1]; 10% Tolfenamic acid, vehicle KET68 (propylene glycol, 100% PPG), sample time 6 hrs): 0.002
- analysis conc ([1]; Tolfenamic acid 10% in vehicle KET51: Ethanol 70% EthOH, Propylene glycol 30% PPG, terpene None, 0.1M citrate, sample time 2 hrs): 0.011 and 0.01
- analysis conc ([1]; Tolfenamic acid 10% in vehicle KET51: Ethanol 70% EthOH, Propylene glycol 30% PPG, terpene None, 0.1M citrate, sample time 4 hrs): 0.004 and 0.003
- Concentration [1, 7]: 0.012 µg/mL and 0.015 µg/mL
- analysis conc [1, 7]: 0.004 and 0.005
- analysis conc [1, 8]: 0.006 and 0.005 and 0.004
- Concentration [1, 9]: 0.009 µg/mL
- analysis conc [1, 9]: 0.003
- Concentration [1, 10]: 0.012 µg/mL and 0.006 µg/mL
- analysis conc [1, 10]: 0.004 and 0.002
- Concentration [1, 11]: 0.009 µg/mL
- analysis conc [1, 11]: 0.003
- Concentration [1, 12]: 0.006 µg/mL
- analysis conc [1, 12]: 0.002
- Concentration [1, 13]: 0.012 µg/mL
- analysis conc [1, 13]: 0.004
- Concentration ([1]; Tolfenamic acid 50%, vehicle KET34: Ethanol 70% EthOH, no co-solvent, Menthol 50 mg/mL, sample time 0.5 hrs, replicates 1-3): 0 µg/mL
- Concentration ([1]; Tolfenamic acid 50%, vehicle KET34: Ethanol 70% EthOH, no co-solvent, Menthol 50 mg/mL, sample time 2 hrs, replicates 1-3): 0 µg/mL
- Concentration ([1]; Tolfenamic acid 50%, vehicle KET34: Ethanol 70% EthOH, no co-solvent, Menthol 50 mg/mL, sample time 4 hrs, replicates 1-3): 0 µg/mL
- Concentration ([1]; Tolfenamic acid 50%, vehicle KET34: Ethanol 70% EthOH, no co-solvent, Menthol 50 mg/mL, sample time 6 hrs, replicates 1-3): 0 µg/mL
- Concentration ([1]; Tolfenamic acid 50%, vehicle KET34: Ethanol 70% EthOH, no co-solvent, Menthol 50 mg/mL, sample time 8 hrs, replicates 1-3): 0 µg/mL
- Concentration [1, 14]: 0 μg/mL (2×) and 0.018 μg/mL
- analysis conc [1, 14]: 0.006
- Concentration [1, 15]: 0 μg/mL (2×) and 0.027 μg/mL
- analysis conc [1, 15]: 0.009
- Concentration [1, 16]: 0.012 μg/mL and 0 μg/mL (2×)
- analysis conc [1, 16]: 0.004
- Concentration ([1]; Tolfenamic acid 50%, vehicle KET39: Ethanol 50% EthOH, no co-solvent, Menthol 50 mg/mL, sample time 6 hrs, replicates 1-3): 0 µg/mL
- Concentration ([1]; Tolfenamic acid 50%, vehicle KET39: Ethanol 50% EthOH, no co-solvent, Menthol 50 mg/mL, sample time 8 hrs, replicates 1-3): 0 µg/mL
- Concentration [1, 17]: 0.006 µg/mL
- analysis conc [1, 17]: 0.002
- Concentration ([1]; Vehicle KET52: 70% EthOH, 30% PPG (propylene glycol), Menthol 50 mg/mL, 0.1M citrate, drug conc 10%, sample time 2 hrs): 0 µg/mL
- analysis conc ([1]; Vehicle KET52: 70% EthOH, 30% PPG (propylene glycol), Menthol 50 mg/mL, 0.1M citrate, drug conc 10%, sample time 4 hrs): 0.004
- analysis conc ([1]; Vehicle KET52: 70% EthOH, 30% PPG (propylene glycol), Menthol 50 mg/mL, 0.1M citrate, drug conc 10%, sample time 6 hrs): 0.003
- Concentration [1, 18]: 0.021 µg/mL and 0.012 µg/mL
- analysis conc [1, 18]: 0.007 and 0.004
- Concentration [1, 19]: 0.006 µg/mL
- analysis conc [1, 19]: 0.002
- analysis conc ([1]; Vehicle KET53: 70% EthOH, 30% OA (oleyl alcohol), no terpene, 0.1M citrate, drug conc 10%, sample time 2 hrs): 0.005
- analysis conc [1, 20]: 0.047 and 0.08 and 0.04
- analysis conc ([1]; Vehicle KET54: 100% SRArl (Superfine Arlasolve), 0.1M citrate, drug conc 10%, sample time 0.5 hrs): 0.002
- Concentration ([1]; Vehicle KET54: 100% SRArl (Superfine Arlasolve), 0.1M citrate, drug conc 10%, sample time 2 hrs): 0 µg/mL
- Concentration ([1]; Vehicle KET54: 100% SRArl (Superfine Arlasolve), 0.1M citrate, drug conc 10%, sample time 4 hrs): 0 µg/mL
- Concentration [1, 21]: 0.009 µg/mL and 0.006 µg/mL
- analysis conc [1, 21]: 0.003 and 0.002 and 0.004
Compound: Cc1c(Cl)cccc1Nc1ccccc1C(=O)O [tolfenamic acid]
- Concentration [1, 4]: 0.018 µg/mL and 0.015 µg/mL and 0.024 µg/mL
- Concentration [1, 5]: 0.018 µg/mL and 0.015 µg/mL and 0.012 µg/mL
- Concentration [1, 8]: 0.018 µg/mL and 0.015 µg/mL and 0.012 µg/mL
- Concentration [1, 20]: 0.141 µg/mL and 0.24 µg/mL and 0.12 µg/mL
- solubility in vehicles [2]: not particularly soluble in most of the vehicles tested
- solubility in vehicles ([2]; listed as Tolfenamic acid): poorly soluble in almost every vehicle tested
